Measured values: the supplement of paper PMC11451515

Tested on: SEM cells
Test: cell viability relative to DMSO control; higher = less cytotoxic
Settings: 48 h
Outline: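 Viability is a per-plate percentage relative to DMSO wells, with cell-free wells as background. CellTiter-Glo One luminescence was read after 48 h at 37°C on 1536-well plates (5 μl) of NOMO1 or SEM (500 cells/well) or P12-Ichikawa (1000 cells/well) leukemia cells. The cells had been adapted for at least four passages in each medium and pin-dosed with library compounds in DMSO from 47 μM to 0.79 nM in 11 threefold steps.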

[1] = HPLM + 10% dialyzed FBS, 0.000781 µM
[2] = HPLM + 10% dialyzed FBS, 0.00234 µM
[3] = HPLM + 10% dialyzed FBS, 0.00702 µM
[4] = HPLM + 10% dialyzed FBS, 0.0211 µM
[5] = HPLM + 10% dialyzed FBS, 0.0632 µM
[6] = HPLM + 10% dialyzed FBS, 0.19 µM
[7] = HPLM + 10% dialyzed FBS, 0.569 µM
[8] = HPLM + 10% dialyzed FBS, 1.71 µM
[9] = HPLM + 10% dialyzed FBS, 5.12 µM
[10] = HPLM + 10% dialyzed FBS, 15.4 µM
[11] = HPLM + 10% dialyzed FBS, 46.1 µM
[12] = RPMI 5 mM glucose + 10% FBS, 0.000781 µM
[13] = RPMI 5 mM glucose + 10% FBS, 0.00234 µM
[14] = RPMI 5 mM glucose + 10% FBS, 0.00702 µM
[15] = RPMI 5 mM glucose + 10% FBS, 0.0211 µM
[16] = RPMI 5 mM glucose + 10% FBS, 0.0632 µM
[17] = RPMI 5 mM glucose + 10% FBS, 0.19 µM
[18] = RPMI 5 mM glucose + 10% FBS, 0.569 µM
[19] = RPMI 5 mM glucose + 10% FBS, 1.71 µM
[20] = RPMI 5 mM glucose + 10% FBS, 5.12 µM
[21] = RPMI 5 mM glucose + 10% FBS, 15.4 µM
[22] = RPMI 5 mM glucose + 10% FBS, 46.1 µM
[23] = RPMI 5 mM glucose + 10% dialyzed FBS, 0.000781 µM
[24] = RPMI 5 mM glucose + 10% dialyzed FBS, 0.00234 µM
[25] = RPMI 5 mM glucose + 10% dialyzed FBS, 0.00702 µM
[26] = RPMI 5 mM glucose + 10% dialyzed FBS, 0.0211 µM
[27] = RPMI 5 mM glucose + 10% dialyzed FBS, 0.0632 µM
[28] = RPMI 5 mM glucose + 10% dialyzed FBS, 0.19 µM
[29] = RPMI 5 mM glucose + 10% dialyzed FBS, 0.569 µM
[30] = RPMI 5 mM glucose + 10% dialyzed FBS, 1.71 µM
[31] = RPMI 5 mM glucose + 10% dialyzed FBS, 5.12 µM
[32] = RPMI 5 mM glucose + 10% dialyzed FBS, 15.4 µM
[33] = RPMI 5 mM glucose + 10% dialyzed FBS, 46.1 µM

SMILES | cell viability [1] | cell viability [2] | cell viability [3] | cell viability [4] | cell viability [5] | cell viability [6] | cell viability [7] | cell viability [8] | cell viability [9] | cell viability [10] | cell viability [11] | cell viability [12] | cell viability [13] | cell viability [14] | cell viability [15] | cell viability [16] | cell viability [17] | cell viability [18] | cell viability [19] | cell viability [20] | cell viability [21] | cell viability [22] | cell viability [23] | cell viability [24] | cell viability [25] | cell viability [26] | cell viability [27] | cell viability [28] | cell viability [29] | cell viability [30] | cell viability [31] | cell viability [32] | cell viability [33]
CC(C)[C@H](CO)Nc1nc(Nc2ccc(C(=O)O)c(Cl)c2)c2ncn(C(C)C)c2n1 | 113% | 104% | 103% | 112% | 126% | 115% | 97.6% | 73.6% | 99.2% | 92.2% | 54.2% | 89.7% | 128% | 114% | 95.2% | 106% | 102% | 86.6% | 83.2% | 75.5% | 91.7% | 45% | 102% | 120% | 97.3% | 107% | 116% | 107% | 114% | 79.1% | 109% | 95.5% | 57.8%
CN(C)c1nc(N(C)C)nc(N(C)C)n1 | 92.3% | 97.3% | 110% | 95.1% | 103% | 104% | 106% | 92.5% | 97.6% | 92.2% | 84.9% | 107% | 111% | 102% | 105% | 107% | 101% | 102% | 100% | 90.1% | 104% | 93.4% | 102% | 115% | 102% | 104% | 108% | 110% | 109% | 94.3% | 100% | 98.6% | 93.1%
CN(C)c1ccc(C(=O)NCCCCCCC(=O)NO)cc1 | 97.1% | 94.4% | 91.8% | 88.1% | 97.7% | 96.2% | 93.9% | 34% | 3.1% | 1.85% | 2.9% | 91.8% | 100% | 94.6% | 92% | 112% | 94.8% | 76.2% | 37.3% | 3.1% | 1.95% | 3.03% | 93.2% | 111% | 105% | 96.4% | 95% | 90.7% | 83.5% | 31.4% | 2.63% | 1.52% | 3.31%
Cc1ccccc1C(C(=O)NC1CCCCC1)N(C(=O)CNc1ccc(C#N)cc1)c1cccc(F)c1 (configuration not stated) | 88.7% | 116% | 119% | 121% | 124% | 118% | 118% | 105% | 118% | 103% | 111% | 113% | 118% | 105% | 106% | 105% | 119% | 103% | 96.9% | 95% | 93.4% | 106% | 85% | 107% | 119% | 95.4% | 97% | 103% | 91.6% | 108% | 97.6% | 101% | 89.5%
